# According to PubChem BioAssay (NCI):
#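 Grown in 96-well plates, cells were treated for 48 hours with each compound at five concentrations. Insufficient inhibition: endpoint recorded as highest concentration tested. GI50 marks 50% less growth. TGI marks complete inhibition of growth.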
# Experiments:
# Experiment in all cases: NCI-60 cell line screen, 48 h
# 786-0 renal = test system: 786-0 renal
# A498 renal = test system: A498 renal
# A549 NSCLC = test system: A549 NSCLC
# ACHN renal = test system: ACHN renal
# BT-549 breast = test system: BT-549 breast
# CAKI-1 renal = test system: CAKI-1 renal
# CCRF-CEM leukemia = test system: CCRF-CEM leukemia
# COLO 205 colon = test system: COLO 205 colon
# DU-145 prostate = test system: DU-145 prostate
# EKVX NSCLC = test system: EKVX NSCLC
# HCC-2998 colon = test system: HCC-2998 colon
# HCT-116 colon = test system: HCT-116 colon
# HCT-15 colon = test system: HCT-15 colon
# HL-60(TB) leukemia = test system: HL-60(TB) leukemia
# HOP-62 NSCLC = test system: HOP-62 NSCLC
# HS 578T breast = test system: HS 578T breast
# HT29 colon = test system: HT29 colon
# IGROV1 ovarian = test system: IGROV1 ovarian
# K-562 leukemia = test system: K-562 leukemia
# KM12 colon = test system: KM12 colon
# LOX IMVI melanoma = test system: LOX IMVI melanoma
# M14 melanoma = test system: M14 melanoma
# MALME-3M melanoma = test system: MALME-3M melanoma
# MCF7 breast = test system: MCF7 breast
# MDA-MB-231 breast = test system: MDA-MB-231 breast
# MDA-MB-435 = test system: MDA-MB-435
# MOLT-4 leukemia = test system: MOLT-4 leukemia
# NCI-H226 lung = test system: NCI-H226 lung
# NCI-H23 lung = test system: NCI-H23 lung
# NCI-H460 lung = test system: NCI-H460 lung
# NCI-H522 lung = test system: NCI-H522 lung
# NCI/ADR-RES ovarian = test system: NCI/ADR-RES ovarian
# OVCAR-3 ovarian = test system: OVCAR-3 ovarian
# OVCAR-4 ovarian = test system: OVCAR-4 ovarian
# OVCAR-5 ovarian = test system: OVCAR-5 ovarian
# OVCAR-8 ovarian = test system: OVCAR-8 ovarian
# PC-3 prostate = test system: PC-3 prostate
# RXF 393 renal = test system: RXF 393 renal
# SF-268 CNS = test system: SF-268 CNS
# SF-295 CNS = test system: SF-295 CNS
# SF-539 CNS = test system: SF-539 CNS
# SK-MEL-2 melanoma = test system: SK-MEL-2 melanoma
# SK-MEL-28 melanoma = test system: SK-MEL-28 melanoma
# SK-MEL-5 melanoma = test system: SK-MEL-5 melanoma
# SK-OV-3 ovarian = test system: SK-OV-3 ovarian
# SN12C renal = test system: SN12C renal
# SNB-19 CNS = test system: SNB-19 CNS
# SNB-75 CNS = test system: SNB-75 CNS
# SR leukemia = test system: SR leukemia
# SW-620 colon = test system: SW-620 colon
# T-47D breast = test system: T-47D breast
# TK-10 renal = test system: TK-10 renal
# U251 CNS = test system: U251 CNS
# UACC-257 melanoma = test system: UACC-257 melanoma
# UACC-62 melanoma = test system: UACC-62 melanoma
# UO-31 renal = test system: UO-31 renal
compound,measurement,setting,value
CCN(CC)CCOc1ccc2c(c1)C(=O)c1cc(OCCN(CC)CC)ccc1-2,GI50,786-0 renal,7.17 µM
same,TGI,786-0 renal,21.8 µM
same,GI50,A498 renal,16.5 µM
same,TGI,A498 renal,37.5 µM
same,GI50,A549 NSCLC,6.4 µM
same,TGI,A549 NSCLC,32.9 µM
same,GI50,ACHN renal,5.92 µM
same,TGI,ACHN renal,46.5 µM
same,GI50,BT-549 breast,20.4 µM
same,TGI,BT-549 breast,46.5 µM
same,GI50,CAKI-1 renal,30.2 µM
same,TGI,CAKI-1 renal,> 100 µM
same,GI50,CCRF-CEM leukemia,4.81 µM
same,TGI,CCRF-CEM leukemia,21 µM
same,GI50,COLO 205 colon,2.56 µM
same,TGI,COLO 205 colon,9.38 µM
same,GI50,DU-145 prostate,14.8 µM
same,TGI,DU-145 prostate,81.5 µM
same,GI50,EKVX NSCLC,20 µM
same,TGI,EKVX NSCLC,63.6 µM
same,GI50,HCC-2998 colon,10 µM
same,TGI,HCC-2998 colon,22.6 µM
same,GI50,HCT-116 colon,3.45 µM
same,TGI,HCT-116 colon,15.2 µM
same,GI50,HCT-15 colon,12.1 µM
same,TGI,HCT-15 colon,44.6 µM
same,GI50,HL-60(TB) leukemia,3.04 µM
same,TGI,HL-60(TB) leukemia,17.5 µM
same,GI50,HOP-62 NSCLC,8.12 µM
same,TGI,HOP-62 NSCLC,28 µM
same,GI50,HS 578T breast,13.7 µM
same,TGI,HS 578T breast,38 µM
same,GI50,HT29 colon,2.58 µM
same,TGI,HT29 colon,10.4 µM
same,GI50,IGROV1 ovarian,6.65 µM
same,TGI,IGROV1 ovarian,43.2 µM
same,GI50,K-562 leukemia,3.1 µM
same,TGI,K-562 leukemia,11.2 µM
same,GI50,KM12 colon,5.36 µM
same,TGI,KM12 colon,24.9 µM
same,GI50,LOX IMVI melanoma,4.31 µM
same,TGI,LOX IMVI melanoma,16.7 µM
same,GI50,M14 melanoma,14 µM
same,TGI,M14 melanoma,27.1 µM
same,GI50,MALME-3M melanoma,15.6 µM
same,TGI,MALME-3M melanoma,33.6 µM
same,GI50,MCF7 breast,3.44 µM
same,TGI,MCF7 breast,14.8 µM
same,GI50,MDA-MB-231 breast,10.4 µM
same,TGI,MDA-MB-231 breast,33.8 µM
same,GI50,MDA-MB-435,12.9 µM
same,TGI,MDA-MB-435,27.7 µM
same,GI50,MOLT-4 leukemia,5.27 µM
same,TGI,MOLT-4 leukemia,23.9 µM
same,GI50,NCI-H226 lung,11.7 µM
same,TGI,NCI-H226 lung,34.2 µM
same,GI50,NCI-H23 lung,11.9 µM
same,TGI,NCI-H23 lung,27.5 µM
same,GI50,NCI-H460 lung,4.03 µM
same,TGI,NCI-H460 lung,15.2 µM
same,GI50,NCI-H522 lung,12.4 µM
same,TGI,NCI-H522 lung,27.5 µM
same,GI50,NCI/ADR-RES ovarian,9.63 µM
same,TGI,NCI/ADR-RES ovarian,33.2 µM
same,GI50,OVCAR-3 ovarian,18.3 µM
same,TGI,OVCAR-3 ovarian,52.6 µM
same,GI50,OVCAR-4 ovarian,5.69 µM
same,TGI,OVCAR-4 ovarian,38.7 µM
same,GI50,OVCAR-5 ovarian,35.6 µM
same,TGI,OVCAR-5 ovarian,69.7 µM
same,GI50,OVCAR-8 ovarian,8 µM
same,TGI,OVCAR-8 ovarian,54 µM
same,GI50,PC-3 prostate,5.64 µM
same,TGI,PC-3 prostate,26.2 µM
same,GI50,RXF 393 renal,10.2 µM
same,TGI,RXF 393 renal,24 µM
same,GI50,SF-268 CNS,8.5 µM
same,TGI,SF-268 CNS,33.1 µM
same,GI50,SF-295 CNS,17.2 µM
same,TGI,SF-295 CNS,49.1 µM
same,GI50,SF-539 CNS,2.54 µM
same,TGI,SF-539 CNS,5.72 µM
same,GI50,SK-MEL-2 melanoma,11.3 µM
same,TGI,SK-MEL-2 melanoma,24.4 µM
same,GI50,SK-MEL-28 melanoma,15.1 µM
same,TGI,SK-MEL-28 melanoma,29.4 µM
same,GI50,SK-MEL-5 melanoma,12.2 µM
same,TGI,SK-MEL-5 melanoma,24.6 µM
same,GI50,SK-OV-3 ovarian,16.4 µM
same,TGI,SK-OV-3 ovarian,60.2 µM
same,GI50,SN12C renal,12.6 µM
same,TGI,SN12C renal,45.1 µM
same,GI50,SNB-19 CNS,26.3 µM
same,TGI,SNB-19 CNS,61.7 µM
same,GI50,SNB-75 CNS,12.2 µM
same,TGI,SNB-75 CNS,24.9 µM
same,GI50,SR leukemia,2.69 µM
same,TGI,SR leukemia,6.59 µM
same,GI50,SW-620 colon,4.04 µM
same,TGI,SW-620 colon,20.6 µM
same,GI50,T-47D breast,23.8 µM
same,TGI,T-47D breast,56.2 µM
same,GI50,TK-10 renal,19.2 µM
same,TGI,TK-10 renal,90.9 µM
same,GI50,U251 CNS,8.73 µM
same,TGI,U251 CNS,31.3 µM
same,GI50,UACC-257 melanoma,11.5 µM
same,TGI,UACC-257 melanoma,24.9 µM
same,GI50,UACC-62 melanoma,12.4 µM
same,TGI,UACC-62 melanoma,26.7 µM
same,GI50,UO-31 renal,3.52 µM
same,TGI,UO-31 renal,26.3 µM
